# Test results: PubChem BioAssay AID504559 (Johns Hopkins Ion Channel Center, 2011)
# pIC50: −log10 of the molar value. Activity calls are given as the source filed them.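 How the source made its calls: active means dose-dependent block of Kir2.1 potassium channel current at -100 mV within the tested dose range; inactive means no dose-dependent block of that current.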
# Target: Inward rectifier potassium channel 2 (Mus musculus) (UniProt P35561)
# Assay: blockers of mouse Kir2.1 inward rectifier current – cell-based, IonWorks automated patch clamp, -100 mV, SAR follow-up (AID 504559)
# Conditions: Kir2.1 cell line, IonWorks patch clamp current at -100 mV
# Inward rectifier potassium channel 2 (Mus musculus), sequence (P35561 whole entry, looked up): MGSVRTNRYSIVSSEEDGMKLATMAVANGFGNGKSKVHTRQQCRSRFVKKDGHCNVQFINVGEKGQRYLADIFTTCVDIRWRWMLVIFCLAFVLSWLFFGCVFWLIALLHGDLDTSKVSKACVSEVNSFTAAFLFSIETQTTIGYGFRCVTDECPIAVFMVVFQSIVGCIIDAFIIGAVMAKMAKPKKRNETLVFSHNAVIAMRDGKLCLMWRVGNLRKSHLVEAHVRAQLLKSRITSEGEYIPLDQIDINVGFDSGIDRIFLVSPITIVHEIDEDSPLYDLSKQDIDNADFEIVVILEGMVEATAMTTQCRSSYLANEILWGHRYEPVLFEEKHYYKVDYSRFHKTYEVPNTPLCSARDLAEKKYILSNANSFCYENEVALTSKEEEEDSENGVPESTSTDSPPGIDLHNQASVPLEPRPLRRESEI
row,SMILES,pIC50
1,CC(O)CNCCCOc1cccc(Oc2ccccc2)c1 (configuration not stated),4.94
2,C[C@@H](NS(=O)(=O)c1cccc(Br)c1)c1ccccc1,4.51
3,C[C@H](NS(=O)(=O)c1ccc(Cl)cc1)c1ccccc1,4.67
4,Cc1ccc(C)c(OCCCNCc2ccccc2)c1,4.69
5,C[C@H](NS(=O)(=O)c1cccc(Br)c1)c1ccccc1,4.51
6,C[C@H](NS(=O)(=O)c1ccc(Br)cc1)c1ccccc1,4.67

# Same assay, conditions: Kir2.1 cell line, IonWorks patch clamp current at -100 mV; at 30 µM (top of the series)
row,SMILES,"current change, negative = inhibition"
1,Cc1ccc(S(=O)(=O)N[C@H](C)c2ccccc2)cc1,inactive
2,Cc1ccc2nc(NCc3ccccc3)[nH]c2c1,inactive
3,C[C@H](NS(=O)(=O)c1cc(Cl)cc(Cl)c1O)c1ccccc1,inactive
4,C[C@H](NS(=O)(=O)c1ccccc1Br)c1ccccc1,inactive
5,C[C@@H](NS(=O)(=O)c1ccccc1)c1ccccc1,inactive
6,C[C@@H](NS(=O)(=O)c1ccc(Cl)cc1)c1ccccc1,inactive
7,C[C@H](NS(=O)(=O)c1ccccc1)c1ccccc1,inactive
8,Cc1ccc(Nc2cc(C)nc3c(C)cccc23)cc1,inactive
9,C[C@@H](NS(C)(=O)=O)c1ccccc1,inactive
10,Cc1noc(C)c1COC(=O)CCN1c2ccccc2Sc2ccccc21,inactive
11,O=C(NCC1CCCCN1)c1cc(OCC(F)(F)F)ccc1OCC(F)(F)F (configuration not stated),inactive
12,Cc1ccc2nc(N3CCN(CCO)CC3)nc(-c3ccccc3)c2c1,inactive
13,c1ccc(CNc2c3ccccc3nc3ccccc23)cc1,inactive
14,C[C@H](NS(C)(=O)=O)c1ccccc1,inactive
15,C[C@@H](NS(=O)(=O)c1cc(Cl)cc(Cl)c1O)c1ccccc1,inactive
16,C[C@@H](NS(=O)(=O)c1ccccc1Br)c1ccccc1,inactive
